Data from ChEMBL document CHEMBL1201862, “PubChem BioAssay data set” (2004).
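Grown in 96-well plates, cells were treated for 48 hours with each compound at five concentrations. Insufficient inhibition: endpoint recorded as highest concentration tested. At the GI50, growth is halved.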 The source made the active and inactive calls. No stated cut-off is given here; in the data, active = GI50 up to about 1.1 µM and inactive = higher.

Key:
Assay in all cases: NCI tumour cell line growth inhibition, 48 h
[1] = system: EKVX
[2] = system: HCC 2998
[3] = system: HT-29
[4] = system: OVCAR-3
[5] = system: UACC-257
[6] = system: OVCAR-5
[7] = system: KM-20L2
[8] = system: NCI-H226
[9] = system: NCI-H522
[10] = system: SK-MEL-2
[11] = system: IGROV-1
[12] = system: OVCAR-4
[13] = system: SF-295
[14] = system: U-251
[15] = system: ACHN
[16] = system: Malme-3M
[17] = system: SNB-19
[18] = system: XF498
[19] = system: UO-31
[20] = system: LOX IMVI
[21] = system: A498
[22] = system: TK-10
[23] = system: M19-MEL
[24] = system: SNB-78
[25] = system: A549
[26] = system: RXF 631
[27] = system: HCT-116
[28] = system: DMS-273
[29] = system: MOLT-4
[30] = system: DLD-1
[31] = system: HOP-62
[32] = system: COLO 205
[33] = system: NCI-H23
[34] = system: SK-MEL-28
[35] = system: HCT-15
[36] = system: SNB-75
[37] = system: 786-0
[38] = system: HOP-92
[39] = system: LXFL 529
[40] = system: K562
[41] = system: SN12C
[42] = system: SF-268
[43] = system: DMS-114
[44] = system: RPMI-8226
[45] = system: SF-539
[46] = system: M14
[47] = system: OVCAR-8
[48] = system: NCI-H460
[49] = system: SK-MEL-5
[50] = system: SW-620
[51] = system: CAKI-1
[52] = system: KM12
[53] = system: CCRF-CEM
[54] = system: SK-OV-3
[55] = system: UACC-62
[56] = system: HL-60
[57] = system: HOP-18
[58] = system: RXF 393
[59] = system: SR

Measured: GI50

C=C1C=CC2(Br)OC3CC(C)(Cl)C(Br)CC13C2(C)C (centres undefined)
inactive: [1] 24.5 µM | [2] 20.4 µM | [3] 18.1 µM | [4] 20 µM | [5] 18.5 µM | [6] 17.1 µM | [7] 21.9 µM | [8] 19.1 µM | [9] 15.4 µM | [10] 17.6 µM | [11] 28.9 µM | [12] 30.1 µM | [13] 20.4 µM | [14] 18.8 µM | [15] 23.6 µM | [16] 18.2 µM | [17] 27 µM | [18] 13.3 µM | [19] 20.7 µM | [20] 18.9 µM | [21] 22.3 µM | [22] 37.2 µM | [23] 21.5 µM | [24] 22.4 µM | [25] 26.4 µM | [26] 23 µM | [27] 15 µM | [28] 35.8 µM | [29] 16.9 µM | [30] 31.6 µM | [31] 23.1 µM | [32] 16.1 µM | [33] 19.1 µM | [34] 20 µM | [36] 25.2 µM | [37] 33.8 µM | [38] 21.2 µM | [39] 22.5 µM | [40] 17.9 µM | [41] 18.9 µM | [42] 30.1 µM | [43] 17.2 µM | [44] 23.2 µM | [45] 18.5 µM | [46] 21.2 µM | [47] 30.7 µM | [48] 22 µM | [49] 17.3 µM | [50] 24.2 µM | [51] 29.5 µM | [52] 24.4 µM | [53] 25.1 µM | [54] 30.5 µM | [55] 17.8 µM | [56] 15.2 µM
23 µM: [35]

CCOC(=O)C1C=C2O[C@@H]3OC4(CCCCC4)O[C@@H]3C2C2C(=O)CCC(=O)[C@@]12C(=O)OC (some centres undefined)
> 100 µM: [35]
inactive: [1] > 100 µM | [2] > 100 µM | [3] > 10 µM | [4] 82.4 µM | [5] > 100 µM | [6] > 100 µM | [7] > 100 µM | [8] > 100 µM | [9] > 100 µM | [10] > 100 µM | [11] > 100 µM | [12] > 100 µM | [13] > 100 µM | [14] > 100 µM | [15] > 100 µM | [16] > 100 µM | [57] > 100 µM | [17] > 100 µM | [18] > 100 µM | [19] > 100 µM | [20] > 100 µM | [21] > 100 µM | [23] > 100 µM | [24] > 100 µM | [25] > 100 µM | [26] > 100 µM | [27] > 100 µM | [28] > 100 µM | [29] > 100 µM | [30] > 100 µM | [31] > 100 µM | [32] > 100 µM | [33] > 100 µM | [34] > 100 µM | [36] > 100 µM | [37] > 100 µM | [38] > 100 µM | [39] > 100 µM | [40] > 100 µM | [41] > 100 µM | [42] > 100 µM | [43] > 100 µM | [44] > 100 µM | [46] > 100 µM | [47] > 100 µM | [48] > 100 µM | [49] > 100 µM | [50] > 100 µM | [51] > 100 µM | [52] > 100 µM | [53] > 100 µM | [54] > 100 µM | [55] > 100 µM | [56] > 100 µM

[O-][n+]1c2cc3c(cc2[n+]([O-])c2c(O)cccc21)CN(CCN1CCOCC1)C3
27.4 µM: [35]
inactive: [1] 14.9 µM | [3] 16 µM | [4] 18.7 µM | [5] 23.4 µM | [6] 38 µM | [7] 35.4 µM | [8] 41.9 µM | [9] 5.36 µM | [10] 20.7 µM | [11] 12.7 µM | [12] 62.2 µM | [13] 13.1 µM | [14] 12.1 µM | [15] 5.83 µM | [16] 48.9 µM | [58] 16.1 µM | [57] > 100 µM | [17] 73.5 µM | [18] 12.5 µM | [19] 10.6 µM | [21] 44.6 µM | [22] 27.4 µM | [23] 14.5 µM | [24] 32.4 µM | [25] 34.9 µM | [26] > 100 µM | [27] 11.4 µM | [28] 53.6 µM | [29] 4.43 µM | [32] 14.5 µM | [33] 30.7 µM | [34] > 100 µM | [36] 89.1 µM | [37] 16.8 µM | [38] 5.7 µM | [39] 14.1 µM | [40] 12 µM | [41] 29 µM | [59] 2.48 µM | [42] 11.2 µM | [43] 8.41 µM | [44] 18.4 µM | [46] 49.5 µM | [47] 12.1 µM | [48] 7.18 µM | [49] 56 µM | [51] 48.9 µM | [52] 16.8 µM | [53] 6.12 µM | [54] 17.1 µM | [55] 24.8 µM | [56] 5.7 µM
